One block for each compound: values may come before it.
System: 997726-040-R-J2-PDC tumor spheroids, viability
Test: Anticancer human tumor 997726-040-R-J2-PDC patient-derived squamous cell lung carcinoma cell line growth inhibition [PI3K]
Conditions: spheroids with HUVEC and MSC; for viability, T/C: stronger effect = lower value
From the text: Combinatorial screen of targeted agents with the PI3K inhibitors inavolisib, alpelisib, duvelisib, and copanlisib in multi-cell type tumor spheroids
A high-throughput screen of multi-cell type tumor spheroids was designed to identify active combinations of targeted small molecules and PI3K pathway inhibitors. Complex spheroids include a stromal component modeled by human endothelial cells (HUVEC) and fibroblasts modeled by human mesenchymal stem cells (MSCs). The concentration ranges selected for each drug and investigational agent were based upon clinically achievable concentrations if the clinical Cmax of the agent was known.
Compounds. The drugs and investigational agents: inavolisib (NSC800729), alpelisib (NSC765974), duvelisib (NSC772469), copanlisib (NSC816437), ipatasertib (NSC767898), afuresertib (NSC778305), talazoparib (NSC767125), sapanisertib (NSC764658), selumetinib (NSC741078), tovorafenib (DAY101, NSC766906), vemurafenib (NSC761431), ravoxertinib (NSC781343), sotorasib (NSC818433), MRTX1133 (NSC 836407), abemaciclib (NSC 768073), palbociclib (NSC758247), venetoclax (NSC 766270), SY5609 (NSC837396), enzalutamide (NSC755605), and darolutamide (NSC825331), were obtained from the National Cancer Institute (NCI) Developmental Therapeutics Program Chemical Repository. The FDA-approved anticancer drug set is available from the NCI Developmental Therapeutics Program. […] The stock solutions were prepared in dimethyl sulfoxide (DMSO, Sigma-Aldrich, St. Louis, MO, cat. D2650) at 800-fold the tested concentration and stored at -70 degrees C prior to their use. All drugs and investigational agents were tested over a range starting from a high concentration at or near the clinical Cmax and decreasing in half-log increments. If the clinical Cmax for an agent had not been determined, the highest concentration tested was 10 microM.
Cell Culture. All cells were maintained in an incubator at 37 degrees C and 5% CO2 with 95% humidity. The PDC lines were cultured according to standard operating procedures established by the NCI PDMR (https://pdmr.cancer.gov/sops/default.htm). All PDCs were thawed and cultured in Matrigel-coated flasks prepared with a working solution of 1X Ham's F-12 nutrient mix, without supplementation (Invitrogen, Waltham, MA, cat. 11765054), 100 U/mL penicillin-streptomycin (Invitrogen, cat. 15140122), and 2.5% Matrigel (Corning Inc., Corning, NY, cat. 354248) for the first three passages. The 354836-022-R-J1-PDC, 475296-252-R-J1-PDC, and 997726-040-R-J2-PDC lines were cultured in 6A media, which includes advanced DMEM/F-12 (Thermo Fisher Scientific, cat. 12634028), 10 mM HEPES (Thermo Fisher Scientific, cat. 15630080), 1X GlutaMAX supplement (Thermo Fisher Scientific, cat. 35050061), 0.1 mg/mL primocin (InvivoGen, San Diego, CA, cat. ant-pm-2), 10% defined fetal bovine serum, heat inactivated (HyClone Laboratories Inc., Logan, UT, cat. SH30070.03HI), 50% L-WRN conditioned media (ATCC, cat. CRL-3276), 1.25 mM N-Acetyl-L-cysteine (Sigma-Aldrich, cat. A9165), 10 mM nicotinamide (Sigma-Aldrich, cat. N0636), 1X B-27 supplement (Thermo Fisher Scientific, cat. 17504044), 1X N-2 supplement (Thermo Fisher Scientific, cat. 17502048), and 10 microM Y-27632 dihydrochloride (Tocris Bioscience, Bristol, United Kingdom, cat. 1254). The 624824-186-R-J2-PDC line was cultured in 6C/Colon 1B media, which includes all 6A media components plus 50 ng/mL human EGF recombinant protein (Thermo Fisher Scientific, cat. PHG0311). […]
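Also: spheroids exposed to compounds for seven days before readout.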

- IC50 (curve of compound): > 10000 nM
SMILES: C#Cc1c(F)ccc2cc(O)cc(-c3ncc4c(N5CC6CCC(C5)N6)nc(OCC56CCCN5CC(F)C6)nc4c3F)c12 (configuration not stated)
- viability, T/C (compound 0.0316 µM): 105% [middle of 4 runs]
- viability, T/C (compound 0.1 µM): 96% [middle of 4 runs]
- viability, T/C (compound 0.316 µM): 96.5% [middle of 4 runs]
- viability, T/C (compound 1 µM): 96.6% [middle of 4 runs]
- viability, T/C (compound 3.16 µM): 92.6% [middle of 4 runs]
- viability, T/C (compound 10 µM): 77.5% [middle of 4 runs]

- IC50 (curve of compound): > 10000 nM
SMILES: C[C@@H](NC(=O)c1ncnc(N)c1Cl)c1ncc(C(=O)Nc2cc(C(F)(F)F)c(Cl)cn2)s1
- viability, T/C (compound 0.1 µM): 125% [middle of 4 runs]
- viability, T/C (compound 0.316 µM): 117% [middle of 4 runs]
- viability, T/C (compound 1 µM): 110% [middle of 4 runs]
- viability, T/C (compound 3.16 µM): 105% [middle of 4 runs]
- viability, T/C (compound 10 µM): 73.3% [middle of 4 runs]

- IC50 (curve of compound): 92.5 nM [middle of 4 runs]
SMILES: Cn1ncc(Cl)c1-c1cc(C(=O)NC(CN)Cc2cccc(F)c2)sc1Cl (configuration not stated)
- viability, T/C (compound 0.0316 µM): 84.3% [middle of 4 runs]
- viability, T/C (compound 0.1 µM): 46.1% [middle of 4 runs]
- viability, T/C (compound 0.316 µM): 27.1% [middle of 4 runs]
- viability, T/C (compound 1 µM): 12.9% [middle of 4 runs]
- viability, T/C (compound 3.16 µM): 9.41% [middle of 4 runs]
- viability, T/C (compound 10 µM): 12.4% [middle of 4 runs]

- IC50 (curve of first compound, second compound 0.00316 µM): 154 nM
- IC50 (curve of first compound, second compound 0.01 µM): 82.4 nM
- IC50 (curve of first compound, second compound 0.0316 µM): 13.8 nM
- IC50 (curve of first compound, second compound 0.1 µM): < 9.49 nM
- IC50 (curve of first compound, second compound 0.316 µM): < 9.49 nM
- IC50 (curve of first compound, second compound 1 µM): < 9.49 nM
SMILES: Cn1cnc2c(F)c(Nc3ccc(Br)cc3Cl)c(C(=O)NOCCO)cc21 + CC(Nc1ccc2c(c1)OCCn1cc(N3C(=O)OCC3C(F)F)nc1-2)C(N)=O
- viability, T/C (second compound 0.00316 µM, first compound 0.00949 µM): 70.5%
- viability, T/C (second compound 0.00316 µM, first compound 0.03 µM): 65%
- viability, T/C (second compound 0.00316 µM, first compound 0.0949 µM): 58.1%
- viability, T/C (second compound 0.00316 µM, first compound 0.3 µM): 39.1%
- viability, T/C (second compound 0.00316 µM, first compound 0.949 µM): 35.8%
- viability, T/C (second compound 0.00316 µM, first compound 3 µM): 29.1%
- viability, T/C (second compound 0.01 µM, first compound 0.00949 µM): 62%
- viability, T/C (second compound 0.01 µM, first compound 0.03 µM): 59%
- viability, T/C (second compound 0.01 µM, first compound 0.0949 µM): 47.6%
- viability, T/C (second compound 0.01 µM, first compound 0.3 µM): 40.8%
- viability, T/C (second compound 0.01 µM, first compound 0.949 µM): 39.2%
- viability, T/C (second compound 0.01 µM, first compound 3 µM): 30.9%
- viability, T/C (second compound 0.0316 µM, first compound 0.00949 µM): 49.1%
- viability, T/C (second compound 0.0316 µM, first compound 0.03 µM): 50.8%
- viability, T/C (second compound 0.0316 µM, first compound 0.0949 µM): 42.2%
- viability, T/C (second compound 0.0316 µM, first compound 0.3 µM): 30.2%
- viability, T/C (second compound 0.0316 µM, first compound 0.949 µM): 28.2%
- viability, T/C (second compound 0.0316 µM, first compound 3 µM): 21.1%
- viability, T/C (second compound 0.1 µM, first compound 0.00949 µM): 36.6%
- viability, T/C (second compound 0.1 µM, first compound 0.03 µM): 42%
- viability, T/C (second compound 0.1 µM, first compound 0.0949 µM): 33%
- viability, T/C (second compound 0.1 µM, first compound 0.3 µM): 22.1%
- viability, T/C (second compound 0.1 µM, first compound 0.949 µM): 21%
- viability, T/C (second compound 0.1 µM, first compound 3 µM): 14%
- viability, T/C (second compound 0.316 µM, first compound 0.00949 µM): 32.1%
- viability, T/C (second compound 0.316 µM, first compound 0.03 µM): 27.9%
- viability, T/C (second compound 0.316 µM, first compound 0.0949 µM): 23.7%
- viability, T/C (second compound 0.316 µM, first compound 0.3 µM): 20.5%
- viability, T/C (second compound 0.316 µM, first compound 0.949 µM): 14%
- viability, T/C (second compound 0.316 µM, first compound 3 µM): 15%
- viability, T/C (second compound 1 µM, first compound 0.00949 µM): 24.5%
- viability, T/C (second compound 1 µM, first compound 0.03 µM): 22.4%
- viability, T/C (second compound 1 µM, first compound 0.0949 µM): 21.7%
- viability, T/C (second compound 1 µM, first compound 0.3 µM): 20.3%
- viability, T/C (second compound 1 µM, first compound 0.949 µM): 15%
- viability, T/C (second compound 1 µM, first compound 3 µM): 12.9%

— PubChem BioAssay AID1963964 (Molecular Pharmacology Branch, DTP, NCI, 2024)
